≈ marks a conversion by molar mass, not a printed value.
Assays:
[1] = tested on: Leishmania donovani; test: (§1) Antileishmanial activity against Leishmania donovani MHOM/ET/67/HU3 amastigotes infected in BALB/c mouse model of visceral leishmaniasis assessed as reduction in parasite burden in liver at 25 mg/kg, po administered once daily for 5 consecutive days starting after 7 days post-infection by microscopic analysis relative to control; assay type: functional; set-up: scale not given: the % may be the effect or the level left; conditions: time 5 day
[2] = tested on: Leishmania donovani; test: as §1, with “12.5” for “25”; assay type: functional; set-up: scale not given: the % may be the effect or the level left; conditions: time 5 day
[3] = tested on: MRC5; test: Cytotoxicity against human MRC5 cells assessed as reduction in cell viability measured after 72 hrs by resazurin assay; assay type: ADME, cell-based; conditions: MRC5, 72 h
[4] = tested on: Leishmania infantum; test: Antileishmanial activity against Leishmania infantum MHOM/MA(BE)/67 amastigotes infected in mouse peritoneal macrophages incubated for 5 days by Giemsa staining based assay; assay type: functional, organism-based; conditions: MHOM/MA(BE)/67, Peritoneal macrophage, 120 h
[5] = Aqueous solubility of the compound at pH 7 sonicated for 15 mins by HPLC analysis; conditions: aqueous medium
[6] = tested on: Leishmania donovani; test: as §1, with “50” for “25”; assay type: functional; set-up: scale not given: the % may be the effect or the level left; conditions: time 5 day
[7] = Microsomal stability in human liver microsomes assessed as parent compound remaining at 1 uM measured up to 60 mins in presence of NADPH by LC-MS/MS analysis
[8] = Microsomal stability in mouse liver microsomes assessed as parent compound remaining at 1 uM measured up to 60 mins in presence of NADPH by LC-MS/MS analysis
[9] = Solubility of the compound in 0.1 M HCl at pH 1 sonicated for 15 mins by HPLC analysis; assay type: physicochemical
[10] = in vivo; conditions: BALB/c, mouse, po, 25 mg/kg
[11] = Initial plasma concentration in BALB/c mouse at 1 mg/kg, iv measured up to 24 hrs by LC-MS/MS analysis
[12] = in vivo; conditions: BALB/c, mouse, po, 25 mg/kg; remark: listed apart in the source
Description: AUClast in BALB/c mouse at 25 mg/kg, po measured up to 24 hrs by LC-MS/MS analysis

[13] = in vivo; conditions: BALB/c, mouse, po, 25 mg/kg; remark: listed apart in the source
[14] = Half life in BALB/c mouse at 25 mg/kg, po measured up to 24 hrs by LC-MS/MS analysis; assay type: ADME, organism-based; conditions: in vivo
[15] = Clearance in BALB/c mouse at 1 mg/kg, iv measured up to 24 hrs by LC-MS/MS analysis; conditions: in vivo
[16] = Half life in BALB/c mouse at 1 mg/kg, iv measured up to 24 hrs by LC-MS/MS analysis; conditions: in vivo
[17] = AUClast in BALB/c mouse at 1 mg/kg, iv measured up to 24 hrs by LC-MS/MS analysis; conditions: in vivo
[18] = Volume of distribution at steady state in BALB/c mouse at 1 mg/kg, iv measured up to 24 hrs by LC-MS/MS analysis; conditions: in vivo
[19] = in vivo; conditions: BALB/c, mouse, po, 25 mg/kg; remark: listed apart in the source
[20] = tested on: Leishmania donovani; test: as §1, with “spleen” for “liver”, “50” for “25”; assay type: functional; set-up: scale not given: the % may be the effect or the level left; conditions: time 5 day
[21] = tested on: Leishmania donovani; test: Antileishmanial activity against Leishmania donovani MHOM/ET/67/HU3 amastigotes infected in po dosed BALB/c mouse model of visceral leishmaniasis assessed as reduction in parasite burden in liver at administered once daily for 5 consecutive days starting after 7 days post-infection by microscopic analysis; assay type: functional; conditions: MHOM/ET/67/HU3, po, 120 h, time 5 day
[22] = tested on: Leishmania donovani; test: as §1, with “spleen” for “liver”; assay type: functional; set-up: scale not given: the % may be the effect or the level left; conditions: time 5 day
[23] = tested on: Leishmania donovani; test: as §1, with “6.25” for “25”; assay type: functional; set-up: scale not given: the % may be the effect or the level left; conditions: time 5 day
[24] = tested on: Mycobacterium tuberculosis; test: Antitubercular activity against Mycobacterium tuberculosis H37Rv assessed as minimum inhibitory concentration required to inhibit 90% of bacterial growth incubated for 7 days under aerobic condition by microplate Alamar blue assay; assay type: functional; conditions: 168 h, time 7 day
[25] = tested on: Mycobacterium tuberculosis; test: Antitubercular activity against Mycobacterium tuberculosis H37Rv assessed as minimum inhibitory concentration required to inhibit 90% of bacterial growth incubated for 10 days under anerobic condition followed by incubation under ambient gaseous condition for 7 days by low oxygen recovery assay; assay type: functional; conditions: 408 h, time 17 day

| SMILES | IC50 [3] [nM] | IC50 [4] [nM] | solubility at 0.25 h [5] [µg/mL] | also measured |
| --- | --- | --- | --- | --- |
| CC1(COc2ccc(OC(F)(F)F)cc2)CCn2cc([N+](=O)[O-])nc2O1 (stereo not drawn) | – | – | – | Activity [1]: 100%; Activity [2]: 100% |
| CC1(COCc2ccc(OC(F)(F)F)cc2)CCn2cc([N+](=O)[O-])nc2O1 (stereo not drawn) | ≥ 40000 | 300 | – | – |
| CC1(CNS(=O)(=O)c2ccc(OC(F)(F)F)cc2)CCn2cc([N+](=O)[O-])nc2O1 (stereo not drawn) | ≥ 40000 | 2200 | – | – |
| CC1(COc2ccc(Cl)cc2)CCn2cc([N+](=O)[O-])nc2O1 (stereo not drawn) | ≥ 40000 | 130 | – | – |
| C[C@@]1(COC(=O)Nc2ccc(OC(F)(F)F)cc2)CCn2cc([N+](=O)[O-])nc2O1 | ≥ 40000 | 200 | 7.9 (≈ 19 µM) | Activity [1]: 51%; Activity [2]: 31% |
| O=C(NCc1ccc(OC(F)(F)F)cc1)OCC1CCn2cc([N+](=O)[O-])nc2O1 (stereo not drawn) | ≥ 40000 | 180 | – | – |
| CN(CC1(C)CCn2cc([N+](=O)[O-])nc2O1)c1ccc(F)cc1 (stereo not drawn) | ≥ 40000 | 480 | – | – |
| O=C(NCc1ccc(OC(F)(F)F)cc1)N(Cc1ccc(OC(F)(F)F)cc1)C(=O)OCC1CCn2cc([N+](=O)[O-])nc2O1 (stereo not drawn) | ≥ 40000 | 790 | – | – |
| CC1(CNC(=O)COc2ccc(OC(F)(F)F)cc2)CCn2cc([N+](=O)[O-])nc2O1 (stereo not drawn) | ≥ 40000 | 1700 | – | – |
| CC1(CNC(=O)Nc2ccc(OC(F)(F)F)cc2)CCn2cc([N+](=O)[O-])nc2O1 (stereo not drawn) | ≥ 40000 | 1400 | 121 (≈ 291 µM) | Activity [6]: 36%; remaining at 1 h, 1 µM [7]: 54%; remaining at 1 h, 1 µM [8]: 39% |
| O=C(NCC1CCn2cc([N+](=O)[O-])nc2O1)c1ccc(OC(F)(F)F)cc1 (stereo not drawn) | ≥ 40000 | 1500 | – | – |
| CC1(COC(=O)N(Cc2ccc(OC(F)(F)F)cc2)C(=O)NCc2ccc(OC(F)(F)F)cc2)CCn2cc([N+](=O)[O-])nc2O1 (stereo not drawn) | ≥ 40000 | 1300 | – | – |
| CC1(CNCc2ccc(OC(F)(F)F)cc2)CCn2cc([N+](=O)[O-])nc2O1 (stereo not drawn) | ≥ 40000 | 130 | 124 (≈ 321 µM) | solubility at 0.25 h [9]: 33000 µg/mL (≈ 85400 µM) |
| CC1(CNC(=O)Cc2ccc(OC(F)(F)F)cc2)CCn2cc([N+](=O)[O-])nc2O1 (stereo not drawn) | ≥ 40000 | 2000 | – | – |
| O=[N+]([O-])c1cn2c(n1)OC(CNc1ccc(OC(F)(F)F)cc1)CC2 (stereo not drawn) | ≥ 40000 | 150 | – | – |
| CN(CC1(C)CCn2cc([N+](=O)[O-])nc2O1)c1ccc(C(F)(F)F)nc1 (stereo not drawn) | ≥ 40000 | 2200 | – | – |
| CN(CC1CCn2cc([N+](=O)[O-])nc2O1)c1ccc(OC(F)(F)F)cc1 (stereo not drawn) | ≥ 40000 | 220 | – | – |
| O=C(Nc1ccc(OC(F)(F)F)cc1)OCC1CCn2cc([N+](=O)[O-])nc2O1 (stereo not drawn) | ≥ 40000 | 360 | 4.5 (≈ 11.2 µM) | Cmax at 24 h [10]: 9600 ng/mL; C0 at 24 h [11]: 740 ng/mL; AUC(0-t) at 24 h [12]: 35400 ng·h/mL; Tmax at 24 h [13]: 1 h; half-life [14]: 1.6 h; clearance at 24 h [15]: 14 mL/min/kg; half-life at 24 h [16]: 1.2 h; AUC(0-t) at 24 h [17]: 1170 ng·h/mL; Vd at 24 h [18]: 1.6 L/kg; bioavailability at 24 h [19]: 100% |

| SMILES | IC50 [3] [nM] | IC50 [4] [nM] | solubility at 0.25 h [5] [µg/mL] | also measured |
| --- | --- | --- | --- | --- |
| CN(CC1(C)CCn2cc([N+](=O)[O-])nc2O1)c1ccc(Cl)cc1 (stereo not drawn) | ≥ 40000 | 310 | – | – |
| CC1(CNC(=O)NCc2ccc(OC(F)(F)F)cc2)CCn2cc([N+](=O)[O-])nc2O1 (stereo not drawn) | ≥ 40000 | 1800 | – | – |
| CC1(CNC(=O)c2ccc(OC(F)(F)F)cc2)CCn2cc([N+](=O)[O-])nc2O1 (stereo not drawn) | ≥ 40000 | 1400 | 78 (≈ 195 µM) | Activity [6]: 71% |
| CC1(CNS(=O)(=O)c2cccc(OC(F)(F)F)c2)CCn2cc([N+](=O)[O-])nc2O1 (stereo not drawn) | ≥ 40000 | 2000 | – | – |
| CC1(CNC(=O)OCc2ccc(OC(F)(F)F)cc2)CCn2cc([N+](=O)[O-])nc2O1 (stereo not drawn) | ≥ 40000 | 160 | 28 (≈ 65.1 µM) | – |
| CC1(COC(=O)NCc2ccc(OC(F)(F)F)cc2)CCn2cc([N+](=O)[O-])nc2O1 (stereo not drawn) | ≥ 40000 | 320 | 117 (≈ 272 µM) | – |
| CC1(CNc2ccc(Cl)cc2)CCn2cc([N+](=O)[O-])nc2O1 (stereo not drawn) | ≥ 40000 | 290 | – | – |
| O=C(NCC1CCn2cc([N+](=O)[O-])nc2O1)Nc1ccc(OC(F)(F)F)cc1 (stereo not drawn) | ≥ 40000 | 3300 | – | – |
| CC1(COc2ccc(F)cc2)CCn2cc([N+](=O)[O-])nc2O1 (stereo not drawn) | ≥ 40000 | 450 | – | – |
| CC1(CNC(=O)c2ccccc2OC(F)(F)F)CCn2cc([N+](=O)[O-])nc2O1 (stereo not drawn) | ≥ 40000 | 9900 | – | – |
| CN(CC1(C)CCn2cc([N+](=O)[O-])nc2O1)c1ccc(OC(F)(F)F)cc1 (stereo not drawn) | ≥ 40000 | 270 | 1.5 (≈ 3.88 µM) | Activity [6]: 58%; solubility at 0.25 h [9]: 4.6 µg/mL (≈ 11.9 µM) |
| CC1(CNc2ccc(F)cc2)CCn2cc([N+](=O)[O-])nc2O1 (stereo not drawn) | ≥ 40000 | 930 | – | – |
| CC1(COC(=O)Nc2ccc(OC(F)(F)F)cc2)CCn2cc([N+](=O)[O-])nc2O1 (stereo not drawn) | ≥ 40000 | 360 | 11 (≈ 26.4 µM) | Activity [20]: 100%; Activity [6]: >99%; Cmax at 24 h [10]: 13500 ng/mL; C0 at 24 h [11]: 800 ng/mL; AUC(0-t) at 24 h [12]: 57800 ng·h/mL; ED50 [21]: 16 mg/kg; Tmax at 24 h [13]: 0.75 h; Activity [1]: 97%; half-life [14]: 1.7 h; clearance at 24 h [15]: 8.5 mL/min/kg; Activity [22]: 96%; half-life at 24 h [16]: 1.3 h; Activity [2]: 7%; AUC(0-t) at 24 h [17]: 2070 ng·h/mL; Vd at 24 h [18]: 1.2 L/kg; bioavailability at 24 h [19]: 100% |
| CC1(CNC(=O)c2cccc(OC(F)(F)F)c2)CCn2cc([N+](=O)[O-])nc2O1 (stereo not drawn) | ≥ 40000 | 1300 | 14 (≈ 35 µM) | remaining at 1 h, 1 µM [7]: 58%; remaining at 1 h, 1 µM [8]: 36% |
| CC1(COCC(=O)Nc2ccc(OC(F)(F)F)cc2)CCn2cc([N+](=O)[O-])nc2O1 (stereo not drawn) | ≥ 40000 | 490 | – | – |
| CC1(CNc2ccc(OC(F)(F)F)cc2)CCn2cc([N+](=O)[O-])nc2O1 (stereo not drawn) | ≥ 40000 | 180 | 3 (≈ 8.06 µM) | Activity [6]: >99%; solubility at 0.25 h [9]: 10 µg/mL (≈ 26.9 µM); Activity [23]: 29% |
| CC1(COC(=O)Nc2ccccc2OC(F)(F)F)CCn2cc([N+](=O)[O-])nc2O1 (stereo not drawn) | ≥ 40000 | 640 | – | – |
| C[C@]1(COC(=O)Nc2ccc(OC(F)(F)F)cc2)CCn2cc([N+](=O)[O-])nc2O1 | ≥ 40000 | 140 | 6.3 (≈ 15.1 µM) | MIC90 [24]: 0.085 µM (≈ 0.0354 µg/mL); MIC90 [25]: 1 µM (≈ 0.416 µg/mL); Activity [1]: 89%; Activity [2]: 40% |

Reference: ChEMBL document CHEMBL4673405, “Novel Linker Variants of Antileishmanial/Antitubercular 7-Substituted 2-Nitroimidazooxazines Offer Enhanced Solubility” (ACS Med Chem Lett, 2021)
